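Method: 48-hour compound exposure of cells in 96-well plates, five concentrations, linear interpolation of endpoints. At the GI50, growth is halved. TGI marks complete inhibition of growth.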
Columns and labels:
Assay in all cases: inhibition of tumour cell growth, NCI panel, 48 h
786-0 renal = system: 786-0 renal
A498 renal = system: A498 renal
A549 NSCLC = system: A549 NSCLC
ACHN renal = system: ACHN renal
BT-549 breast = system: BT-549 breast
CAKI-1 renal = system: CAKI-1 renal
CCRF-CEM leukemia = system: CCRF-CEM leukemia
COLO 205 colon = system: COLO 205 colon
DU-145 prostate = system: DU-145 prostate
EKVX NSCLC = system: EKVX NSCLC
HCC-2998 colon = system: HCC-2998 colon
HCT-116 colon = system: HCT-116 colon
HCT-15 colon = system: HCT-15 colon
HL-60(TB) leukemia = system: HL-60(TB) leukemia
HOP-62 NSCLC = system: HOP-62 NSCLC
HOP-92 NSCLC = system: HOP-92 NSCLC
HS 578T breast = system: HS 578T breast
HT29 colon = system: HT29 colon
IGROV1 ovarian = system: IGROV1 ovarian
K-562 leukemia = system: K-562 leukemia
KM12 colon = system: KM12 colon
LOX IMVI melanoma = system: LOX IMVI melanoma
M14 melanoma = system: M14 melanoma
MALME-3M melanoma = system: MALME-3M melanoma
MCF7 breast = system: MCF7 breast
MDA-MB-231 breast = system: MDA-MB-231 breast
MDA-MB-435 = system: MDA-MB-435
MDA-MB-468 breast = system: MDA-MB-468 breast
MOLT-4 leukemia = system: MOLT-4 leukemia
NCI-H226 lung = system: NCI-H226 lung
NCI-H23 lung = system: NCI-H23 lung
NCI-H460 lung = system: NCI-H460 lung
NCI-H522 lung = system: NCI-H522 lung
NCI/ADR-RES ovarian = system: NCI/ADR-RES ovarian
OVCAR-3 ovarian = system: OVCAR-3 ovarian
OVCAR-4 ovarian = system: OVCAR-4 ovarian
OVCAR-5 ovarian = system: OVCAR-5 ovarian
OVCAR-8 ovarian = system: OVCAR-8 ovarian
PC-3 prostate = system: PC-3 prostate
RPMI-8226 leukemia = system: RPMI-8226 leukemia
RXF 393 renal = system: RXF 393 renal
SF-268 CNS = system: SF-268 CNS
SF-295 CNS = system: SF-295 CNS
SF-539 CNS = system: SF-539 CNS
SK-MEL-2 melanoma = system: SK-MEL-2 melanoma
SK-MEL-28 melanoma = system: SK-MEL-28 melanoma
SK-MEL-5 melanoma = system: SK-MEL-5 melanoma
SK-OV-3 ovarian = system: SK-OV-3 ovarian
SN12C renal = system: SN12C renal
SNB-19 CNS = system: SNB-19 CNS
SNB-75 CNS = system: SNB-75 CNS
SR leukemia = system: SR leukemia
SW-620 colon = system: SW-620 colon
T-47D breast = system: T-47D breast
TK-10 renal = system: TK-10 renal
U251 CNS = system: U251 CNS
UACC-257 melanoma = system: UACC-257 melanoma
UACC-62 melanoma = system: UACC-62 melanoma
UO-31 renal = system: UO-31 renal

Question: What does the source list for `COc1ccc(-c2nc3ccc(-c4nnc(SCc5ccccc5)o4)cc3[nH]2)cc1`?
Answer: GI50 (786-0 renal): 1.97 µM; TGI (786-0 renal): 4.26 µM; GI50 (A498 renal): 2.17 µM; TGI (A498 renal): 3.97 µM; GI50 (A549 NSCLC): 3.48 µM; TGI (A549 NSCLC): 13.8 µM; GI50 (ACHN renal): 2.48 µM; TGI (ACHN renal): 6 µM; GI50 (BT-549 breast): 3.27 µM; TGI (BT-549 breast): 7.64 µM; GI50 (CAKI-1 renal): 1.98 µM; TGI (CAKI-1 renal): 3.81 µM; GI50 (CCRF-CEM leukemia): 2.82 µM; TGI (CCRF-CEM leukemia): 19.6 µM; GI50 (COLO 205 colon): 15.9 µM; TGI (COLO 205 colon): 89.1 µM; GI50 (DU-145 prostate): 6.89 µM; TGI (DU-145 prostate): 23.4 µM; GI50 (EKVX NSCLC): 3.98 µM; TGI (EKVX NSCLC): 16.6 µM; GI50 (HCC-2998 colon): 13.2 µM; TGI (HCC-2998 colon): 78.9 µM; GI50 (HCT-116 colon): 3.66 µM; TGI (HCT-116 colon): 15.7 µM; GI50 (HCT-15 colon): 2.97 µM; TGI (HCT-15 colon): 11.9 µM; GI50 (HL-60(TB) leukemia): 2.79 µM; TGI (HL-60(TB) leukemia): 15.5 µM; GI50 (HOP-62 NSCLC): 3.17 µM; TGI (HOP-62 NSCLC): 9.51 µM; GI50 (HOP-92 NSCLC): 6.46 µM; TGI (HOP-92 NSCLC): 24 µM; GI50 (HS 578T breast): 2.77 µM; TGI (HS 578T breast): 7.29 µM; GI50 (HT29 colon): 3.48 µM; TGI (HT29 colon): 12 µM; GI50 (IGROV1 ovarian): 10.7 µM; TGI (IGROV1 ovarian): 23.9 µM; GI50 (K-562 leukemia): 2.9 µM; TGI (K-562 leukemia): 24.8 µM; GI50 (KM12 colon): 11.3 µM; TGI (KM12 colon): > 100 µM; GI50 (LOX IMVI melanoma): 1.91 µM; TGI (LOX IMVI melanoma): 3.73 µM; GI50 (M14 melanoma): 4.25 µM; TGI (M14 melanoma): 26.5 µM; GI50 (MALME-3M melanoma): 1.81 µM; TGI (MALME-3M melanoma): 3.58 µM; GI50 (MCF7 breast): 2.86 µM; TGI (MCF7 breast): 12.8 µM; GI50 (MDA-MB-231 breast): 2.55 µM; TGI (MDA-MB-231 breast): 6.3 µM; GI50 (MDA-MB-435): 3.05 µM; TGI (MDA-MB-435): 11.3 µM; GI50 (MDA-MB-468 breast): 2.36 µM; TGI (MDA-MB-468 breast): 7.36 µM; GI50 (MOLT-4 leukemia): 3.58 µM; TGI (MOLT-4 leukemia): > 100 µM; GI50 (NCI-H226 lung): 1.76 µM; TGI (NCI-H226 lung): 3.84 µM; GI50 (NCI-H23 lung): 4.21 µM; TGI (NCI-H23 lung): 19.8 µM; GI50 (NCI-H460 lung): 3.71 µM; TGI (NCI-H460 lung): 16.3 µM; GI50 (NCI-H522 lung): 2.27 µM; TGI (NCI-H522 lung): 7.08 µM; GI50 (NCI/ADR-RES ovarian): 2.51 µM; TGI (NCI/ADR-RES ovarian): 7.69 µM; GI50 (OVCAR-3 ovarian): 2.82 µM; TGI (OVCAR-3 ovarian): 6.37 µM; GI50 (OVCAR-4 ovarian): 2.12 µM; TGI (OVCAR-4 ovarian): 5.08 µM; GI50 (OVCAR-5 ovarian): 15.6 µM; TGI (OVCAR-5 ovarian): 38.5 µM; GI50 (OVCAR-8 ovarian): 1.91 µM; TGI (OVCAR-8 ovarian): 3.87 µM; GI50 (PC-3 prostate): 3.1 µM; TGI (PC-3 prostate): 11.2 µM; GI50 (RPMI-8226 leukemia): 2.96 µM; TGI (RPMI-8226 leukemia): 17.4 µM; GI50 (RXF 393 renal): 2.2 µM; TGI (RXF 393 renal): 7.45 µM; GI50 (SF-268 CNS): 3.53 µM; TGI (SF-268 CNS): 13.7 µM; GI50 (SF-295 CNS): 2.07 µM; TGI (SF-295 CNS): 4.42 µM; GI50 (SF-539 CNS): 1.73 µM; TGI (SF-539 CNS): 3.22 µM; GI50 (SK-MEL-2 melanoma): 2.44 µM; TGI (SK-MEL-2 melanoma): 7.73 µM; GI50 (SK-MEL-28 melanoma): 3.14 µM; TGI (SK-MEL-28 melanoma): 12.2 µM; GI50 (SK-MEL-5 melanoma): 2.64 µM; TGI (SK-MEL-5 melanoma): 9.41 µM; GI50 (SK-OV-3 ovarian): 5.51 µM; TGI (SK-OV-3 ovarian): 21.5 µM; GI50 (SN12C renal): 2.07 µM; TGI (SN12C renal): 4.88 µM; GI50 (SNB-19 CNS): 7.81 µM; TGI (SNB-19 CNS): 21 µM; GI50 (SNB-75 CNS): 1.66 µM; TGI (SNB-75 CNS): 3.27 µM; GI50 (SR leukemia): 4.76 µM; TGI (SR leukemia): > 100 µM; GI50 (SW-620 colon): 7.02 µM; TGI (SW-620 colon): 44.2 µM; GI50 (T-47D breast): 2.02 µM; TGI (T-47D breast): 4.84 µM; GI50 (TK-10 renal): 3.13 µM; TGI (TK-10 renal): 8.83 µM; GI50 (U251 CNS): 2.07 µM; TGI (U251 CNS): 4.6 µM; GI50 (UACC-257 melanoma): 4.81 µM; TGI (UACC-257 melanoma): 23.1 µM; GI50 (UACC-62 melanoma): 2.15 µM; TGI (UACC-62 melanoma): 6.05 µM; GI50 (UO-31 renal): 4.16 µM; TGI (UO-31 renal): 16.1 µM

Reference: PubChem BioAssay (NCI)
